Data taken from patent US9718846B1, “Crystalline polymorphs of benfotiamine, process for preparation and its use thereof” (Shanghai Ri Xin Biotechnolgy Co., Ltd., priority 2012, dated 2017).

Experiments:
[1] = Solubility in methanol/dichloromethane mixture; format: physicochemical; details: methanol/dichloromethane mixture (1:3 v/v), organic solvent or mixture; mixture organic solvent of methanol and dichloromethane (volume ratio 1:3)
Method: In 200 μl of a mixture organic solvent of methanol and dichloromethane (volume ratio 1:3) was added 10 mg of the crystalline form E of benfotiamine (solubility 50 mg/ml). Then, 1 ml of the poor solvent of ethanol was slowly added to the mixture along device wall. Precipitated crystals were collected by filtration, followed by evaporated in the air.

[2] = Dynamic vapor sorption analysis of hygroscopicity; format: physicochemical; details: RH from 5% to 95%, comparison of forms A, C, D, E
Source text: Dynamic vapor sorption analysis was used for measurement of the hygroscopicity of crystalline form A, C, D, and E under the scope of relative humidity (RH) from 5% to 95%.

Row | solubility [1] [mg/mL] | hygroscopicity rank among the four crystalline forms [2] | SMILES
1 | 50 | lowest | C/C(=C(\CCO[P+]([O-])(O)O)SC(=O)c1ccccc1)N(C=O)Cc1cnc(C)nc1N [crystalline form E, S-benzoylthiamine O-monophosphate]
2 |  | highest | C/C(=C(\CCO[P+]([O-])(O)O)SC(=O)c1ccccc1)N(C=O)Cc1cnc(C)nc1N [crystalline form D, S-benzoylthiamine O-monophosphate]
